Results reported in US20120034164A1, “TRUNCATED CAR PEPTIDES AND METHODS AND COMPOSITIONS USING TRUNCATED CAR PEPTIDES” (Sanford-Burnham Medical Research Institute California, priority 2010, published 2012).
Where a SMILES comes first, the peptide text is derived from it. Bridges are numbered along the chain shown (N, C = ends). Roman numbers before positions name the chains, in order. Primed or numbered codes have the meaning given here. Where no end group is shown, it is not given here. The star is where a group is joined. 5FAM = O=C1OC2(c3ccc(O)cc3Oc3cc(O)ccc32)c2ccc(C(=O)*)cc21; 5FAM″ = 5-carboxyfluorescein label

Assays:
[1] = system: monocrotaline-induced PAH lesions; assay: Peptide homing to lungs in monocrotaline-induced PAH rats (anti-FITC immunohistochemistry); type: in vivo, rat; details: for accumulation of peptide in the PAH lungs: 2 hours after injection; for accumulation in the kidney: MCT-treated PAH rats and untreated healthy animals
Protocol: Monocrotaline (Sigma-Aldrich, St. Louis, Mo.) was dissolved in 0.3 M hydrochloride solution and neutralized with 0.3 M sodium hydroxide solution, and adjusted pH around 7.0. Adult male Sprague-Dawley rats (150-200 g, Harlan Laboratories, Indianapolis, Ind.) were administered with a single subcutaneous injection of monocrotaline solution at a dose of 60 mg/kg body weight, while control rats were administered with 0.9% saline (Bader, M. Rat models of cardiovascular diseases. Methods Mol Biol 597, 403-14 (2010)). Rats were randomly selected and studied for peptide targeting studies on 1, 3, 7, 14 or 21 days after the treatment of monocrotaline.
(§1) The following peptides were labeled with 5-carboxyfluorescein (FAM) and used for the lung targeting studies: CAR, CARSKNKDC (SEQ ID NO:147); VCAM1, CVHSPNKKCGGSK (SEQ ID NO:13); CG7C control CGGGGGGGC (SEQ ID NO:14); CAR mutant (CAR-M), CAQSNNKDC (SEQ ID NO:15). Peptides were dissolved in PBS at the concentrations of 0.5 mg/mL. Hypertensive rats were injected with peptide solution through tail vein (3.3 mg/kg). At 2 hours after the injection, rats were perfused with PBS containing 1% bovine serum albumin under the deep anesthesia and tissues were fixed by systemic perfusion with 10% buffered formalin. The organs were excised and fixed for additional 24 hours and processed for anti-fluorescein immunohistochemistry.
To determine the localization of the peptides, paraffin-embedded tissue sections were immunostained with rabbit anti-fluoroscein isothiocyanate (FITC) antibody (Invitrogen, Carlsbad, Calif.) followed by horseradish peroxidase-labeled anti-rabbit IgG secondary antibody. The peptide localization was then visualized by DAB. Sections were counter stained with hematoxylin to visualize the region of cells. An automated staining system, Discovery XT (Ventana, Tucson, Ariz.) was used for the staining. To examine the co-localization of the peptides with macrophages or alveolar type II cells, tissue sections were doubly stained with rabbit anti-FITC antibody and mouse anti-rat-CD68 antibody; EDI (Serotec, Raleigh, N.C.) or rabbit anti-Prosurfactant Protein C (proSP-C, Millipore, Temecula, Calif.), respectively. For FITC/proSP-C double staining, FITC staining was completed first. The tissues sections were then treated withcitrate buffer (pH 6.0) at 98° C. for 10 min before proceeding to proSP-C staining. Biotinylated species-specific secondary antibodies and alkaline phosphatase-labeled streptavidin (Vector Laboratories, Burlingame, Calif.) were used to visualize macrophages and alveolar type II cells with Permanent Red (Dako, Carpinteria, Calif.).
Images of stained slides were observed and captured with ECLIPSE 90i or 80i microscope with CCD camera DS-5M (Nikon Instruments, Melville, N.Y.). To quantify the targeting efficiency of the peptides to the lung, the immunostained sections were scanned by Aperio Scanscope XT and analyzed using ImageScope software (Aperio Technologies, Vista, Calif.). For the quantification of area and density of peptide staining, the Aperio Color Deconvolution tool was used to compare total peptide positive area and intensity of peptide staining in each animal. The thresholds were set empirically for strong, medium, and weak staining. The area of each level of staining was presented as percent of such area in the total cell area. The total stained area was normalized by hematoxylin stained area of same regions.
A rat model of monocrotaline (MCT)-induced pulmonary arterial hypertension was used for this study. Briefly, male Sprague-Dawley rats (150-200 g, Harlan Laboratories, IN) were administered with a single subcutaneous injection of monocrotaline at 60 mg/kg (Sigma-Aldrich, MO), while control rats administered 0.9% saline. Rats were randomly selected and studied for peptide distribution studies on 1, 3, 7, 14 or 21 days after the treatment of monocrotaline. […]

[2] = system: SU5416/hypoxia-induced PAH lesions; type: in vivo, rat
Protocol: Adult male Sprague-Dawley rats (approx. 200 g) were injected subcutaneously with SU5416 (20 mg/kg body weight; SUGEN Inc, South San Francisco, Calif.), which was suspended in carboxymethylcellulose (0.5% carboxymethylcellulose sodium, 0.9% sodium chloride, 0.4% polysorbate, 0.9% benzyl alcohol in deionized water). The rats were then exposed to chronic hypoxia in a hypobaric chamber (barometric pressure, 410 mm Hg: inspired O2 tension, 76 mm Hg) for 3 weeks followed by an additional 6 weeks of reexposure to normoxia. Rats were examined at 9 weeks after the injection of SU5416 when they develop severe occlusive pulmonary arterial lesions (Abe, K. et al. Formation of plexiform lesions in experimental severe pulmonary arterial hypertension. Circulation 121, 2747-54 (2010)).
as §1, with “CVHSPNKKCGGSK” left out, “The organs were excised and fixed for additional 24 hours and processed for anti-fluorescein immunohistochemistry.” left out

4T1 tumors = assay: In vivo tumor homing of FAM-labeled peptides (confocal imaging); details: 200 μL of 1 mM FAM-peptide i.v.
Protocol: Mice bearing orthotopic tumors generated with 4T1 mouse breast cells were intravenously injected with the 200 μL of 1 mM fluorescamine (FAM)-conjugated CAR peptide. The circulation time was 1 hour.
Confocal images of sections of the tumor and normal organs from mice injected with the 200 μL of 1 mM FAM-tCAR peptide. The circulation time was 2 hours.
Confocal images of sections of the tumor and normal organs from mice injected with the 200 μL of 1 mM FAM-ARSKNK peptide. The circulation time was 1 hour.
Confocal images of sections of the tumor and normal organs from mice injected with the 200 μL of 1 mM FAM-KNKSRAC-CARSKNK peptide (SEQ ID NO:4). The circulation time was 1 hour.

mitochondrial membranes = details: at a concentration of 10 μM; cited from earlier work
[3] = MCT-treated rats, FAM-peptide 3.3 mg/kg i.v.

Compound: CVHSPNKKCGGSK (CVHSPNKKCGGSK-{5FAM″}; cysteine pairing not given here) [VCAM-1 binding peptide]
- accumulation of peptide in the PAH lungs [1, 3]: accumulated in the PAH lungs to a similar extent to CAR
- accumulation of peptide in healthy normal lung ([1]; non-MCT-treated rats, FAM-peptide 3.3 mg/kg i.v., 2 hours): a fair amount

Compound: CAQSNNKDC (cysteine pairing not given here; also: labelled with FAM, site not given here) [CAR-M]
- accumulation of peptide in PAH lungs / PAH lesion ([2]; 9 weeks after SU5416, FAM-peptide 3.3 mg/kg i.v., 2 hours): only negligible signal
- detection in remodeled arteries from lung tissue ([2]; peptide 1 mg/300 g rat i.v. in hemodynamic study, anti-fluorescein staining): not

Compound: C[C@@H]1NC(=O)[C@@H](NC(=O)c2ccc3c(c2)C(=O)OC32c3ccc(O)cc3Oc3cc(O)ccc32)CSSC[C@@H](C(=O)O)NC(=O)[C@H](CC(=O)O)NC(=O)[C@H](CCCCN)NC(=O)[C@H](CC(N)=O)NC(=O)[C@H](CCCCN)NC(=O)[C@H](CO)NC(=O)[C@H](CCCNC(=N)N)NC1=O [CAR, CARSKNKDC] (5FAM-CARSKNKDC-OH; disulfide 1-9)
- accumulation in the kidney [1]: accumulation in the kidney was observed
- accumulation in other organs ([1]; MCT-treated rats, organs other than lung, except kidney): absent or very weak

Compound: KNKSRAC-CARSKNK (disulfide I:7-II:1 (inferred); not fully specified (N-terminus); also: FAM label, position not given here) [dimeric tCAR]
- accumulation in tumor tissue (4T1 tumors; circulation time 1 hour): less tumor accumulation than the monomeric tCAR peptide

Compound: ARSKNK (5FAM-ARSKNK)
- accumulation in tumor tissue (4T1 tumors; circulation time 1 hour): Little ARSKNK peptide accumulated in the tumor tissue
- fluorescence in the heart (4T1 tumors; circulation time 1 hour): some fluorescence was detected in the heart

Compound: CARSKNK (also: FAM label, position not given here) [tCAR]
- accumulation in normal tissues (4T1 tumors; circulation time 2 hours): not detectable accumulation
- spreading within tumor tissue (4T1 tumors; circulation time 2 hours): wider spreading within tumor tissue than CAR

Compound: CGGGGGGGC (5FAM-CGGGGGGGC; cysteine pairing not given here) [CG7C]
- accumulation in the kidney [1]: also accumulated in the kidney
- accumulation of peptide in the PAH lungs [1, 3]: only very weak staining

Compound: D(KLAKLAK)2 (KLAKLAKKLAKLAK; D-amino acids; membrane perturbing molecule)
- mitochondrial swelling (mitochondrial membranes): marked mitochondrial swelling
